How the values were obtained:
[1] = target: T1, mutant T7 Y639F polymerase (Escherichia phage T7, UniProt P00573, Y639F); assay type: biochemical, T7 bacteriophage; settings: for effect on nucleotide incorporation: reactions containing 4 rNTPs and no non-canonical nucleotides; for concentration found to increase rate of Y639RNAP-catalyzed transcript extension: more than one rNTP replaced by a non-canonical nucleoside triphosphate; for concentration in excess of which generally inhibitory of activity: reaction with 4 rNTPs and plasmid templates
T1 construct: made in house; host or cells: E. coli BL21 (protease-deficient strain), plasmid pDPT7
T1 sequence (P00573 whole entry Y639F): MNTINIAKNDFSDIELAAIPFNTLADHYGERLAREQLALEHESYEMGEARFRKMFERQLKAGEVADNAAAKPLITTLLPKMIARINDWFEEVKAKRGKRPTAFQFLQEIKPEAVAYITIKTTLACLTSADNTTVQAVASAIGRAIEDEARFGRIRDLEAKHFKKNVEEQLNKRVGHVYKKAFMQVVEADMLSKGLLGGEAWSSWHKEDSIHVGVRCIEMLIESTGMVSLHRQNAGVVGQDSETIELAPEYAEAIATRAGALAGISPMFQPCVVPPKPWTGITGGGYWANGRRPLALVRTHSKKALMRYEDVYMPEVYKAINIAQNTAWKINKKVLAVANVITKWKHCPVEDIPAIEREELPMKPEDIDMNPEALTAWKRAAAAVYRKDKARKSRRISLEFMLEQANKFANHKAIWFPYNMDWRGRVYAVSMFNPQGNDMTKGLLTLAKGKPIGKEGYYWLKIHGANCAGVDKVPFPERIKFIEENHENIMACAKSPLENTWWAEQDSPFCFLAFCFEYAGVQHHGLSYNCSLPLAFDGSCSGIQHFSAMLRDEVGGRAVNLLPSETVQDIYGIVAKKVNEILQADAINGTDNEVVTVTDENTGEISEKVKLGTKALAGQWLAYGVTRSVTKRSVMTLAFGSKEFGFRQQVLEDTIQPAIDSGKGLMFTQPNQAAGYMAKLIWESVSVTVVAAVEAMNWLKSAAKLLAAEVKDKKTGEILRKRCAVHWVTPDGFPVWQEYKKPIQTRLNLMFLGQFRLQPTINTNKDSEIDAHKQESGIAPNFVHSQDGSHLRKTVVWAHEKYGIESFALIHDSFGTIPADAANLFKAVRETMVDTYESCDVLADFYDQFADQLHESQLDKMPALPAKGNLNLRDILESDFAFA
Experimental: In general, transcription reaction mixtures comprised about 40 mM Tris-HCl or 40 mM Tris-Acetate pH 8.0, 5 mM DTT, 5-15 mM MgCl2, 0.1 mCi/ml of alpha-^32P GTP, and various combinations of rNTPs and dNTPs at initial concentrations of 0.5 mM and 1.0 mM, respectively. The reaction mixtures included supercoiled or PvuI-linearized pT75 DNA (10^−8 M) as the template and mutant T7 Y639F polymerase (10^−7 M). Reactions were typically conducted in 50 microliter reaction volumes and incubated at 37° C. Aliquots were removed after 5, 10, and 20 minutes of incubation and the reactions were quenched by adding a solution containing 95% formamide, 20 mM EDTA, 0.01% xylene cyanol. The reaction products were resolved by electrophoresis on denaturing gels containing 6% acrylamide, 0.6% bis-acrylamide, 6 M urea, 1×TBE. The gel was analyzed using a Molecular Dynamics Phosphorimager to determine the rates of incorporation of radioactive GTP into specific transcripts.
To evaluate the effect of A-form stabilizing compounds on polyamines on transcript extension by a mutant T7 RNAP, the activity of the RNAP was evaluated using standard transcription conditions (15 mM MgCl2, 40 mM Tris-HCl pH 8.0, 1 mM EDTA, and 5 mM DTT), or standard transcription reaction conditions plus varying concentrations of ethanol, methanol, trifuoro acteic acid, cobalt hexamine, spermine, or spermidine.
In addition to evaluating A-form stabilizing compounds, we examined the effects of varying the concentration of Mg^2+ and Mn^2+, substituting acetate for chloride as the main reaction counteranion, adding 0.1% tween-20, and adding pyrophosphatase.
With reference to FIG. 1A, reactions in lanes labeled ‘M’ were carried out with wild type polymerase, 4 rNTPs, and either Pvu I- or Hind III-restricted pT75 to generate RNA markers ˜579 or ˜59 bases in length, respectively. Values below each gel lane give the relative rates of synthesis of runoff or long (>˜600 base) transcripts on linearized or supercoiled templates, respectively, normalized to a value of 100 for the 4 rNTP reactions. FIG. 1A compares the relative activities of Y639F in typical polymerase reaction conditions (15 mM MgCl2, 40 mM Tris-HCl pH 8.0, 1 mM EDTA, and 5 mM DTT) and in a modified reaction mixture (40 mM Tris-acetate pH 8.0, 5 mM DTT, 1 mM EDTA, 10 mM Mg-acetate, 0.5 mM MnCl2, 8 mM spermidine, and 1 U/μl pyrophosphatase) in reactions having various combinations of rNTPs and dNTPs with supercoiled or linearized templates.
With reference to FIG. 1B, transcripts were synthesized using Hind III-cut pT75 as the template with 2′-NH2- or 2′-F NTPs as indicated replacing the corresponding rNTPs in the reaction. Reactions were conducted with 8 mM or 0 mM spermidine, as indicated. FIG. 1B compares the activity of Y639F in the presence or absence of spermidine, in reactions with 4 rNTPs or different combinations of rNTPs and 2′-F- or 2′-NH2-NTPs.

Y639F T7RNAP = Y639F T7RNAP (Escherichia phage T7, UniProt P00573, Y639F); settings: 42 bp template
Chain of Y639F T7RNAP (P00573 whole entry Y639F): as above
Experimental: A 42 base-pair synthetic template carrying a consensus T7 promoter was tested for its effect on Y639F T7RNAP activity by measuring the synthesis of 25 base runoff transcripts in reaction mixtures containing 10 mM MgCl2, 40 mM Tris pH 8.0, 1 mM EDTA, 5 mM DTT, 0.5 mM MnCl2 and either 3 dNTP+rGTP or 4 rNTP reactions (FIG. 2A). […] The polymerase and T7 promoter were included at concentrations of about 10^−7 M. Reaction products were subjected to electrophoresis on denaturing gels containing 20% acrylamide, 2% bis-acrylamide, 6 M urea, 1×TBE.

CO [methanol]
effect on nucleotide incorporation [1]: inhibited

O=C(O)C(F)(F)F [trifluoroacetic acid]
effect on nucleotide incorporation [1]: inhibited

N.N.N.N.N.N.[Cl-].[Cl-].[Cl-].[Co+3] [cobalt, cobalt hexamine]
effect on nucleotide incorporation [1]: inhibited

NCCCNCCCCNCCCN [spermine]
runoff synthesis relative to 8 mM spermidine (Y639F T7RNAP; 1.6 mM spermine, 3 dNTPs): 2 fold | concentrations shown to be stimulatory (Y639F T7RNAP; reactions with 3 dNTPs): up to 13 mM | concentration found to increase rate of Y639RNAP-catalyzed transcript extension [1]: at least 1.5 mM | concentration inhibiting transcription ([1]; plasmid pT75 template, all combinations of rNTPs and dNTPs): ≥ 4 mM | concentration in excess of which generally inhibitory of activity [1]: > 1 mM | effect on nucleotide incorporation [1]: minimal effects at low concentrations and were inhibitory at high concentrations | concentration optimum for stimulation of activity ([1]; reactions with non-canonical substrates (3 replaced), plasmid templates): 1 to 2 mM

CO[C@@H]1[C@H](O)[C@@H](COP(=O)(O)OP(=O)(O)OP(=O)(O)O)O[C@H]1n1cnc2c(=O)[nH]c(N)nc21 [2′-O-Me-GTP]
synthesis of 59 base runoff transcripts, lower than in reactions with 4 rNTPs ([1]; Hind-III linearized pT75, modified buffer, single rNTP replaced): eliminated synthesis of runoff transcripts altogether

CCO [ethanol]
effect on nucleotide incorporation [1]: inhibited

NCCCCNCCCN [spermidine]
concentration found to increase rate of Y639RNAP-catalyzed transcript extension [1]: at least 8 mM | concentration in excess of which generally inhibitory of activity [1]: > 10 mM | effect on nucleotide incorporation [1]: minimal effects at low concentrations and were inhibitory at high concentrations
